From a melting point compilation (Tetko et al.; mined from patent text by program, amines drawn as free bases though some values may be those of a salt) come the findings set out here.

For the compound `COc1ccc(N2CCN(c3c(C)c(C)c4c(c3C)C(C3CCCCC3)C(C)(C)O4)CC2)cc1` (configuration not stated), the melting point (as a rule, the temperature of the solid-liquid transition) lay in the range of 119 to 121 °C.

Regarding `C#CCOc1ccc(C(=O)OC)c(OC)c1`, the melting point worked out at 88 °C.

The compound `CC(=O)NNc1ccc(N=Cc2ccccc2)cc1` returned a melting point of 172 to 174 °C.

`CSc1nccc(-c2cc(C)ccc2NC(=O)C(C)(C)C)n1`: the melting point lay in the range of 119 to 120 °C.

Compound `Cn1cc(C(=O)C(Cl)Cl)c(=O)c(-c2cccc(Cl)c2)c1` came in with a melting point of 201 to 202 °C.

As to `O=[N+]([O-])CC(O)c1nn(Cc2ccccc2)c2ccccc12` (configuration not stated), the melting point lay within 100 to 101 °C.

Regarding `CC(C)(C)OC(=O)N[C@@H](Cc1ccc(-c2ccccc2)cc1)C(=O)O`, the melting point lay in the range of 122 to 123 °C.

`Cc1cc(NC(=O)N(C)C)no1` gave a melting point of 150 to 152 °C.

The compound `CCOC(=O)c1[nH]ccc1N` had a melting point of 197 to 200 °C.

Take `CCCCCCCCCC(=O)c1cn(CCCC(=O)O)c2ccccc12`: the melting point is 89 to 90 °C.

With `O=C1CNc2ncc(I)cc2N1Cc1cccc(F)c1C(F)(F)F`, the melting point was over 200 °C.

With `CC1(C)OCC(COc2cc(N)c([N+](=O)[O-])cc2I)O1` (racemic), the melting point was found to be 151 °C.

`CC(Cn1cnnn1)n1nnc2cc3c(=O)n(C)nnc3cc2c1=O` (configuration not stated) had a melting point of 228 to 230 °C.

`CSc1nn2c(N(C)C)cc(C)nc2c1S(=O)(=O)c1ccc2ccccc2c1`: the melting point was over 230 °C.

For the compound `COc1c(Cl)ccnc1C(=O)O`, the melting point fell in the range of 116 to 117 °C.

`Cc1cccc2c(-c3ccc(Cl)cc3)noc12` showed a melting point of 88 to 90 °C.

Take `CC(C)c1nc(CO)n(Cc2ccc([N+](=O)[O-])cc2)c1Sc1cc(Cl)cc(Cl)c1`: the melting point lay within 192 to 194 °C.

As for `O=C(NCc1ccccc1)c1cnccc1-c1ccccc1`, the melting point fell in the range of 164 to 166 °C.

As for `CCOC(CBr)(OCC)c1ccc(OC)cc1`, the melting point was in the range of 55 to 56 °C.

`Cc1c(-c2ccc(F)cc2)[nH]c(N2CCOCC2)c1C#N` gave a melting point of 245 to 247 °C.

In the case of `CC[C@H](C)CNC(=O)[C@@H](C[C@H](O)[C@H](CC1CCCCC1)NC(=O)[C@H](Cc1cscn1)NC(=O)[C@@H](CC(=O)N1CCOCC1)Cc1ccccc1)C(C)(C)O`, the melting point fell in the range of 80 to 82 °C.

Turning to `CC(C)c1ccc(Oc2ccc(C(=O)c3ccc(Oc4ccc(C(C)C)cc4)cc3)cc2)cc1`, the melting point was 104 to 105 °C.

As for `Fc1ccccc1CNc1nc(Cl)ncc1F`, the melting point is 117 to 118 °C.

`COc1cc2c(cc1OC)CN(CCCCOc1ccc(NC(=O)c3cnc4ccccc4n3)cc1)CC2` yielded a melting point of 141 °C.

`CSc1ccc(COc2cc(S(=O)(=O)C(C)C)cc(C#N)c2N)nc1`: the melting point lay within 156 to 157 °C.

For `CC1(C)[C@H](C=C(Cl)C(F)(F)F)[C@@H]1C(=O)NCc1cccc2c1CCCc1ccccc1-2` (relative stereo), the melting point is 65 to 70 °C.

The compound `Cc1ccc(C2=CCC(O)CC2)cc1` (configuration not stated) gave a melting point of 96.5 to 97.5 °C.

`O=C(O)c1cc2cc(Cl)ccc2nc1NC(COCc1ccccc1)C(=O)Nc1ccccc1` (configuration not stated) registered a melting point of 150 to 151 °C.

Consider `Cc1cc(Cl)c(N=C2NCCN2)cc1[N+](=O)[O-]`, for which the melting point lay within 198 to 201 °C.

In the case of `C=C(CC(N)=O)C(=O)O`, the melting point was 153 to 154 °C.

The compound `Cc1cc2c(-c3ccccc3C)c(C(=O)O)c(=O)n(C)c2cc1Cl` registered a melting point of 204 to 205 °C.

Compound `COc1ccc(C(C)N(C)CCCCOc2ccc(S(=O)(=O)c3c(C(C)C)cn4ccccc34)cc2)cc1OC` (configuration not stated) came in with a melting point of 84 to 86 °C.

`N=C(NC1CC1)c1cc2c(cn1)[nH]c1ccccc12` yielded a melting point of 253 °C.

Consider `Nc1ccc(-c2noc(-c3cnn4c(C(F)(F)F)cc(-c5ccc(F)c(F)c5)nc34)n2)cn1`, for which the melting point stood at 262 °C.

Compound `N=C(N)N(CCCCCCCCCCC(=O)O)C(=O)c1nc(Cl)c(N)nc1N` returned a melting point of 181 to 191 °C.

Regarding `CSc1ccc(C(=O)CC(F)(F)F)cc1`, the melting point is 118 to 120 °C.

On to `CCCc1c(OCC(O)COc2cccc(N)c2C#N)ccc(C(C)=O)c1O` (configuration not stated), for which the melting point was 123 to 125 °C.

`CN(Cc1ccc(NC(=O)C2=Cc3cc(-c4ccc5c(c4)CCCO5)ccc3S(=O)(=O)CC2)cc1)C1CCOCC1` gave a melting point of 245 to 249 °C.

On to `O=C(CCC1CCNCC1)c1ccc2c(c1)NCCCC2`, for which the melting point was in the range of 104 to 107 °C.

Compound `NC(=NO)c1ccc(C(=O)O)cn1` registered a melting point of over 300 °C.

Consider `CC(C)(CCc1nnn[nH]1)c1ccc(C(=O)Nc2cn3cc(C(F)(F)F)ccc3n2)cc1`, for which the melting point fell in the range of 250 to 251 °C.

Take `CC(C)C[C@H](NC1CCCCC1)C(=O)N1CCN(C(c2ccc(F)cc2)c2ccc(F)cc2)CC1`: the melting point lay within 45 to 54 °C.

`Cc1nc(-n2cc(C(O)c3ccccc3)nn2)sc1C(=O)NCc1ccccc1` (configuration not stated) returned a melting point of 143 to 146 °C.

Regarding `CCC1(CC)C(=O)c2cc(OC)c(C)c(C)c2C1=O`, the melting point lay within 80 to 81 °C.

For `CSCCCOc1nc(-c2ccc(F)cc2C)c2ccc(=O)n(-c3c(F)cccc3F)c2n1`, the melting point fell in the range of 127 to 128 °C.

For `CCCC(=O)Nc1c(C)c2c(c(Cc3ccc(C(C)C)cc3)c1C)OCC2`, the melting point lay in the range of 168 to 169 °C.

`CC1(c2ccc(N)cc2)C(=O)Nc2cc(Cl)cc(Cl)c2C1=O` (configuration not stated) showed a melting point of 226 to 227 °C.

Regarding `CCOC(=O)c1cc(NCc2ccccc2)c(Oc2ccc(OC)cc2)c(S(N)(=O)=O)c1`, the melting point was 189 to 190 °C.

`O=Cc1ccc(OCCN2OCc3ccccc3C2=O)cc1` displayed a melting point of 102 °C.

On to `CCn1c(C(=O)OC)c(-c2ccc(OC)c(OC)c2)c2cc(OC)c(OC)cc21`, for which the melting point is 191 to 192 °C.

`Cn1cnc(COc2nc3c(cc2C(C)(C)C)nnn3-c2cc(F)ccc2F)n1` came in with a melting point of 154 to 157 °C.

Take `CCOC(=O)CCN1CCN(CC2CN(c3ccc(C(=N)NC(=O)c4ccccc4)cc3)C(=O)O2)CC1` (configuration not stated): the melting point lay in the range of 163 to 164 °C.

`Cc1c(C)c2c(c(C)c1N)CC(C)(CN(C)C)O2` (configuration not stated) displayed a melting point of 66 to 67 °C.

`CCc1cc(-c2ccc(-c3ccn(CC(=O)OC)n3)cc2)ccc1OC` had a melting point of 116 to 120 °C.

In the case of `Cc1ccc(N(C)S(=O)(=O)c2cccs2)c2[nH]c(C(N)=O)cc12`, the melting point lay within 221 to 222 °C.

In the case of `O=C(NCc1ccc(F)cc1)c1cn2nc(N3CCN(C(=O)c4ccccc4C(F)(F)F)CC3)ccc2n1`, the melting point fell in the range of 205 to 207 °C.

`COc1ccc(CCN(C)CCOc2ccc(NC(=O)c3cccc4c3Nc3ccccc3S4)cc2)cc1OC` had a melting point of 90 °C.

The compound `Oc1ccc2ccc(F)c(F)c2c1F` registered a melting point of 91 °C.

`CCC(=O)Nc1cccc(-c2ccc(=O)[nH]n2)c1` registered a melting point of 229 to 230 °C.

For the compound `CCc1cccc(C(C)C)c1NC(=O)NCC1(c2ccccc2)CCCCC1`, the melting point was in the range of 178 to 180 °C.

Compound `CC(C)CC(C#N)NC(=O)C(CC(C)C)NC(=O)c1ccc(Cn2ccnc2)cc1` (configuration not stated) displayed a melting point of 100 to 103 °C.

Regarding `CC1CCCC(C)N1C(=O)C=Cc1ccc(C(F)(F)F)cc1` (configuration not stated), the melting point is 89 to 91 °C.

For `CCOC(=O)c1[nH]c2ccc(Cl)cc2c1Sc1ccccc1`, the melting point was in the range of 160 to 162 °C.

With `CCOC(=O)c1cc(NCc2c(C)cccc2C)c2nc(COC)n(C)c2c1`, the melting point fell in the range of 134 to 135 °C.

Regarding `C=C1CC2C(CCC3(C)C2CCC3(OC(C)=O)C(C)=O)C2(C)C1=CC(=O)CC2CCl` (configuration not stated), the melting point was in the range of 190 to 192 °C.

`CNC(=O)N(O)C(C)c1cc2ccccc2s1` (configuration not stated) displayed a melting point of 149 to 150 °C.

The compound `CC(C)[C@@H](NS(=O)(=O)c1ccc2ccccc2c1)C(=O)O` returned a melting point of 170 to 172 °C.

`O=c1[nH]c2ccc(C3CCN(Cc4ccc(-c5ccccc5)cc4)CC3)cc2[nH]1`: the melting point is over 260 °C.

`O=C(OC1CCCCC1C(C[N+](=O)[O-])c1ccc(Cl)cc1)c1ccc([N+](=O)[O-])cc1` (mixture of isomers): the melting point was in the range of 146 to 148 °C.

Consider `COc1ccc(C(=O)c2cc(-c3cccnc3)c(N3CCOCC3)s2)cc1`, for which the melting point was 149 °C.

With `CCN(CC)CCNC(=O)c1ccccc1NC(=O)COc1ccc(Cl)cc1`, the melting point came out at 109 °C.

In the case of `CCCC(NC(C)C(=O)N1C(C(=O)O)CC2CCCCC21)C(=O)OCC` (configuration not stated), the melting point is 86 to 92 °C.

`O=C1CC(c2ccc([N+](=O)[O-])cc2)=Nc2cccc(C(F)(F)F)c21` came in with a melting point of over 260 °C.

Compound `CCCCCCCCS(=O)Cc1c(C)c(O)c(C)c(CS(=O)CCCCCCCC)c1C` (configuration not stated) came in with a melting point of 175 °C.

Regarding `CCCCCN1C(=O)C(CCC(=O)O)(NC(=O)c2ccc(Cl)c(Cl)c2)c2ccccc21` (configuration not stated), the melting point was 202 to 204 °C.

Regarding `N#Cc1ccc(N2CCN(CC(=O)O)CC2=O)cc1`, the melting point is 120 °C.

As for `CCCCCOC(=O)c1cc(O)nn1-c1ncccc1Cl`, the melting point was 172 to 173 °C.

Take `CCCCn1nc(SC2CCC(CC(=O)O)CC2)c(C(=O)O)c1Cc1cc2c(cc1Cl)OCO2` (configuration not stated): the melting point was found to be 100 °C.

`C#CCN(Cc1ccc2nc(C)[nH]c(=O)c2c1)c1ccc(C(=O)NCc2cccc([N+](=O)[O-])c2)c(N)c1`: the melting point fell in the range of 86 to 92 °C.

`Cc1ccc(C2(Br)C(=O)NC(=O)NC2=O)cc1`: the melting point was 210 to 213 °C.

For `N#Cc1ccc2oc3cc(O)ccc3c2c1`, the melting point is 270 to 271 °C.

As for `CC(C)C(CC(O)C(CC1CCCCC1)NC(=O)C(Cc1c[nH]cn1)NC(=O)C(N)Cc1ccccc1)C(O)CN(Cc1ccccn1)C(=O)OCc1ccccc1` (mixture of isomers), the melting point amounted to 94 °C.

As to `Brc1cccc(OCCOc2nccnc2N2CCNCC2)c1`, the melting point was 62 to 63 °C.

In turn, `COc1ccc2cnoc2c1Cl` yielded a melting point of 115 to 118 °C.

Regarding `CC(C)(C)OC(=O)N1CO[C@@](O[Si](C)(C)C)(C(F)(F)F)[C@@H]1Cc1ccccc1`, the melting point lay within 53 to 55 °C.

In turn, `CCc1nc2c(N)nc3ccccc3c2n1CCCS(C)(=O)=O` returned a melting point of over 250 °C.

Take `O=C1OC(CO)CN1c1ccccc1` (configuration not stated): the melting point was in the range of 122 to 124 °C.
